Experimental data taken from patent publication US20100267561A1, “HERBICIDAL PYRIDAZINONE DERIVATIVES” (priority 2007, published 2010).

Legend:
Assay in all cases: Test B pre-/postemergence plant response
Format in all cases: in vivo
corn (Zea mays) = conditions: for Corn plant response rating: 8 g ai/ha
Outline: (§1)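 Preemergence and postemergence (plants 2-18 cm, 1- to 4-leaf stage) applications used test chemicals in a non-phytotoxic solvent with surfactant. Plants were held in a greenhouse 13 to 15 days, then rated visually against controls on a 0-100 scale (0 no effect, 100 complete control).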

[1] = test system: Russian thistle (Salsola iberica); conditions: Preemergence
Outline: as §1

[2] = test system: eastern black (E.B.) nightshade (Solanum ptycanthum); conditions: Preemergence
Outline: as §1

[3] = test system: cocklebur (Xanthium strumarium); conditions: for Cocklebur plant response rating: 8 g ai/ha
Outline: as §1

[4] = test system: common ragweed (Ambrosia elation); conditions: for Ragweed plant response rating: 8 g ai/ha
Outline: as §1

[5] = test system: morningglory (Ipomoea coccinea); conditions: for Morningglory plant response rating: 8 g ai/ha
Outline: as §1

[6] = test system: surinam grass (Brachiaria decumbens); conditions: for Surinam Grass plant response rating: 8 g ai/ha
Outline: as §1

[7] = test system: yellow nutsedge (Cyperus esculentus); conditions: for Nutsedge, Yellow plant response rating: 8 g ai/ha
Outline: as §1

kochia (Kochia scoparia) = conditions: for Plant response rating, Kochia: Postemergence
Outline: as §1

[8] = test system: Italian ryegrass (Lolium multiflorum); conditions: for Ryegrass, Italian plant response rating: 8 g ai/ha
Outline: as §1

[9] = test system: catchweed bedstraw (Galium aparine); conditions: Preemergence
Outline: as §1

[10] = test system: lambsquarters (Chenopodium album); conditions: for Lambsquarters plant response rating: 8 g ai/ha
Outline: as §1

wild oat (Avena fatua) = conditions: for Oat, Wild plant response rating: 8 g ai/ha
Outline: as §1

[11] = test system: green foxtail (Setaria viridis); conditions: for Foxtail, Green plant response rating: 8 g ai/ha
Outline: as §1

[12] = Postemergence, 16 g ai/ha, scale 0 to 100
[13] = Postemergence, 31 g ai/ha, scale 0 to 100, 0 no effect, 100 complete control
[14] = Postemergence, 62 g ai/ha, scale 0 to 100, 0 no effect, 100 complete control
[15] = Preemergence, 16 g ai/ha, scale 0 to 100 (0 no effect, 100 complete control)
[16] = Preemergence, 31 g ai/ha, 0 to 100 scale, 0 no effect, 100 complete control
[17] = Preemergence, 62 g ai/ha, scale 0 to 100
[18] = 16 g ai/ha, scale 0 to 100 (0 no effect, 100 complete control)
[19] = 31 g ai/ha, 0 to 100 scale, 0 no effect, 100 complete control

Cc1cc(-c2ccc(Cl)cc2)nn1-c1c(OS(C)(=O)=O)cnn(C)c1=O [Compound 36]
Corn plant response rating (corn (Zea mays); postemergence, 0-100 scale): 10
Plant response rating, Corn (corn (Zea mays); [12]): 15
Plant response rating, Corn (corn (Zea mays); [13]): 15
Plant response rating, Corn (corn (Zea mays); [14]): 40
Plant response rating, Corn (corn (Zea mays); [15]): 55
Plant response rating, Corn (corn (Zea mays); [16]): 70
Plant response rating, Corn (corn (Zea mays); [17]): 95
Corn plant response rating (corn (Zea mays); Preemergence, scale 0 to 100): 40
Plant response rating, Russian Thistle [1, 18]: 0
Plant response rating, Russian Thistle ([1]; 62 g ai/ha, scale 0 to 100): 80
Russian Thistle plant response rating ([1]; 8 g ai/ha, scale 0 to 100): 0
Plant response rating, Nightshade, E. B. [2, 18]: 0
Plant response rating, Nightshade, E. B. [2, 19]: 0
Plant response rating, Nightshade, E. B. ([2]; 62 g ai/ha, scale 0 to 100): 0
Nightshade, E. B. plant response rating ([2]; 8 g ai/ha, scale 0 to 100): 0
Cocklebur plant response rating ([3]; postemergence, 0-100 scale): 0
Plant response rating, Cocklebur [3, 12]: 0
Plant response rating, Cocklebur [3, 13]: 0
Plant response rating, Cocklebur [3, 14]: 0
Plant response rating, Cocklebur [3, 15]: 0
Plant response rating, Cocklebur [3, 16]: 0
Plant response rating, Cocklebur [3, 17]: 0
Cocklebur plant response rating ([3]; Preemergence, scale 0 to 100): 0
Ragweed plant response rating ([4]; postemergence, 0-100 scale): 0
Plant response rating, Ragweed [4, 12]: 0
Plant response rating, Ragweed [4, 13]: 0
Plant response rating, Ragweed [4, 14]: 0
Plant response rating, Ragweed [4, 15]: 0
Plant response rating, Ragweed [4, 16]: 0
Plant response rating, Ragweed [4, 17]: 0
Ragweed plant response rating ([4]; Preemergence, scale 0 to 100): 0
Morningglory plant response rating ([5]; postemergence, 0-100 scale): 0
Plant response rating, Morningglory [5, 12]: 0
Plant response rating, Morningglory [5, 13]: 0
Plant response rating, Morningglory [5, 14]: 0
Plant response rating, Morningglory [5, 15]: 0
Plant response rating, Morningglory [5, 16]: 0
Plant response rating, Morningglory [5, 17]: 0
Morningglory plant response rating ([5]; Preemergence, scale 0 to 100): 0
Surinam Grass plant response rating ([6]; postemergence, 0-100 scale): 70
Plant response rating, Surinam Grass [6, 12]: 85
Plant response rating, Surinam Grass [6, 14]: 100
Plant response rating, Surinam Grass [6, 15]: 100
Plant response rating, Surinam Grass [6, 16]: 100
Plant response rating, Surinam Grass [6, 17]: 100
Surinam Grass plant response rating ([6]; Preemergence, scale 0 to 100): 70
Nutsedge, Yellow plant response rating ([7]; postemergence, 0-100 scale): 0
Plant response rating, Nutsedge, Yellow [7, 12]: 0
Plant response rating, Nutsedge, Yellow [7, 13]: 0
Plant response rating, Nutsedge, Yellow [7, 14]: 0
Plant response rating, Nutsedge, Yellow [7, 15]: 0
Plant response rating, Nutsedge, Yellow [7, 16]: 0
Plant response rating, Nutsedge, Yellow [7, 17]: 0
Nutsedge, Yellow plant response rating ([7]; Preemergence, scale 0 to 100): 0
Kochia plant response rating (kochia (Kochia scoparia); 8 g ai/ha, postemergence, 0-100 scale): 0
Plant response rating, Kochia (kochia (Kochia scoparia); 16 g ai/ha, scale 0 to 100): 0
Plant response rating, Kochia (kochia (Kochia scoparia); 31 g ai/ha, scale 0 to 100, 0 no effect, 100 complete control): 0
Plant response rating, Kochia (kochia (Kochia scoparia); 62 g ai/ha, scale 0 to 100, 0 no effect, 100 complete control): 0
Ryegrass, Italian plant response rating ([8]; postemergence, 0-100 scale): 10
Plant response rating, Ryegrass, Italian [8, 12]: 30
Plant response rating, Ryegrass, Italian [8, 13]: 65
Plant response rating, Ryegrass, Italian [8, 14]: 95
Plant response rating, Ryegrass, Italian [8, 15]: 98
Plant response rating, Ryegrass, Italian [8, 16]: 100
Plant response rating, Ryegrass, Italian [8, 17]: 100
Ryegrass, Italian plant response rating ([8]; Preemergence, scale 0 to 100): 20
Plant response rating, Galium [9, 18]: 0
Plant response rating, Galium [9, 19]: 0
Plant response rating, Galium ([9]; 62 g ai/ha, scale 0 to 100): 0
Galium plant response rating ([9]; 8 g ai/ha, scale 0 to 100): 0
Lambsquarters plant response rating ([10]; postemergence, 0-100 scale): 0
Plant response rating, Lambsquarters [10, 12]: 0
Plant response rating, Lambsquarters [10, 13]: 0
Plant response rating, Lambsquarters [10, 14]: 0
Plant response rating, Lambsquarters [10, 15]: 0
Plant response rating, Lambsquarters [10, 16]: 0
Plant response rating, Lambsquarters [10, 17]: 0
Lambsquarters plant response rating ([10]; Preemergence, scale 0 to 100): 0
Oat, Wild plant response rating (wild oat (Avena fatua); postemergence, 0-100 scale): 0
Plant response rating, Oat, Wild (wild oat (Avena fatua); [12]): 50
Plant response rating, Oat, Wild (wild oat (Avena fatua); [13]): 60
Plant response rating, Oat, Wild (wild oat (Avena fatua); [14]): 90
Plant response rating, Oat, Wild (wild oat (Avena fatua); [15]): 50
Plant response rating, Oat, Wild (wild oat (Avena fatua); [16]): 90
Plant response rating, Oat, Wild (wild oat (Avena fatua); [17]): 95
Oat, Wild plant response rating (wild oat (Avena fatua); Preemergence, scale 0 to 100): 0
Foxtail, Green plant response rating ([11]; postemergence, 0-100 scale): 0
Plant response rating, Foxtail, Green [11, 12]: 50
Plant response rating, Foxtail, Green [11, 13]: 60
Plant response rating, Foxtail, Green [11, 14]: 70
Plant response rating, Foxtail, Green [11, 15]: 100
Plant response rating, Foxtail, Green [11, 16]: 100
Plant response rating, Foxtail, Green [11, 17]: 100
Foxtail, Green plant response rating ([11]; Preemergence, scale 0 to 100): 50
